This is an account of results in patent publication US20250026746A1, “ENHANCERS OF PARTICULATE GUANYLYL CYCLASE RECEPTOR A” (Mayo Foundation for Medical Education and Research, priority 2021, published 2025).

Structures can show the parent of a compound that is named as a salt.

The target of experiment [1] is T1, human GC-A (Homo sapiens, UniProt P16066).
T1 construct: host or cells: HEK293
T1 sequence (P16066 33-1061): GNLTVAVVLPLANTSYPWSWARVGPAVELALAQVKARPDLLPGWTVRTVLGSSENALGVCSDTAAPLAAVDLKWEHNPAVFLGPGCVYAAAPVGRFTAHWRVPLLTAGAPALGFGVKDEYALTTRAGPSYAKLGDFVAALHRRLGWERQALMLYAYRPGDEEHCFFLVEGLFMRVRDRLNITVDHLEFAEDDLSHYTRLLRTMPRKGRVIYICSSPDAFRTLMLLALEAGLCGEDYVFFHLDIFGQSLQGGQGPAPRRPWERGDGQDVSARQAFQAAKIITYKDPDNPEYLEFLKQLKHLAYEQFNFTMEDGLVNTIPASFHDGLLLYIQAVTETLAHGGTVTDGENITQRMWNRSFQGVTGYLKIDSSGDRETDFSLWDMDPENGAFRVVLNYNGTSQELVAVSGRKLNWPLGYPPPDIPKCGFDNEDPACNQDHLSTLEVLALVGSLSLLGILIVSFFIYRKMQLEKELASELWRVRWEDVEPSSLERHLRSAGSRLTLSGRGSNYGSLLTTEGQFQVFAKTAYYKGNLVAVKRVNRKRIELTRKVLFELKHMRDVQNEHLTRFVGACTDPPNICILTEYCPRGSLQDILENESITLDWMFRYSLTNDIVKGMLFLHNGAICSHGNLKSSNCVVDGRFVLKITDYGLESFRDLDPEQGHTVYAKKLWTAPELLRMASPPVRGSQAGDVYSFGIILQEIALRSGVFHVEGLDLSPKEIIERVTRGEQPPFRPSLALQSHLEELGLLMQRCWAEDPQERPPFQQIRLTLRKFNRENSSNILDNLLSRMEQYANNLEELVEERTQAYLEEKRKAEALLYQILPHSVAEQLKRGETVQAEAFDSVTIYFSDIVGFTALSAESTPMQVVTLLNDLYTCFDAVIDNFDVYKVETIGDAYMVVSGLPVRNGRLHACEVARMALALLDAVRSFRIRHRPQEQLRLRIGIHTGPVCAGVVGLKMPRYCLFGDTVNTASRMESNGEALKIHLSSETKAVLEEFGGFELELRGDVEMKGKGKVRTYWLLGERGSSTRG
T1 sequence (P01160 124-151 partner limits assumed): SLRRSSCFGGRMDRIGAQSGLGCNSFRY
Description: EC50 and Emax cGMP determination, HTRF, human GC-A overexpressing HEK293 cells. The experiment is classed as cell-based. The note with it: for Emax: HEK293, HEK293 GC-A cells, read-out: EMax cGMP activities; for Emax / EMax cGMP activities: 100% = saturating ANP (10 nM), 0% = EC20 ANP; for EC50: EC20 ANP, read-out: EC50 cGMP activities. The method, then:
Test compounds were evaluated for potentiation of cGMP in human GC-A overexpressing HEK293 cells (Cardiorenal Research Laboratory, Mayo Clinic). Test compounds at 10 mM DMSO stock concentration were dispensed into 384 well small volume white plates using Tecan D300e digital dispenser starting at 5 μM or 40 μM concentration and diluted 2-fold for 10-point concentration response. Wells were backfilled with DMSO such that the final concentration of DMSO in all wells was maintained at 0.3% DMSO. Atrial natriuretic peptide (ANP, Phoenix Pharmaceuticals) ANP was prepared as working stock aliquots at 5 μM in phosphate-buffered solution (PBS) with 0.1% bovine serum albumin (BSA) and diluted to […] in buffer plus Tween20 at 0.3% and added to plates to a final concentration equivalent to EC20 ANP in the cGMP assay. GC-A cells in suspension ([…]) in OptiMem media (ThermoFisher 11058-021) supplemented with 2% fetal bovine serum were plated at 1×10^6 cells/mL and assay plates were spun at 1000 rpm for 30 sec and incubated at room temperature for 30 min. GC-A-mediated activation of cGMP production was measured using cGMP CisBio detection homogenous time-resolved florescence (HTRF) competition assay using labeled-cGMP in human GC-A-overexpressing HEK293 cells. 5 μL of d-2 acceptor was dispensed into each well followed by addition of 5 μL of Anti-cGMP Eu-Cryptate antibody donor and plates were spun at 1000 rpm for 30 sec and incubated in the dark at room temperature for 1 hr. HTRF florescence was read on the ClarioStar microplate reader (BMG). A 100% response was determined from wells in the absence of compound and presence of saturating concentration of ANP (10 nM), and 0) % response was determined from wells containing an EC20 concentration of ANP determined for each new lot of ANP. Concentration-response curves for test compounds were analyzed by […] analysis using GraphPad software to determine EC50 and Emax values.
(In general: Time-resolved FRET reads energy transfer from a long-lived donor to a nearby acceptor.)

The subject of experiment [2] is Primary Human cardiomyocytes. Description: cGMP levels (ELISA) in human cardiomyocytes. The format is cell-based. The note with it: acetate salt, 1 or 10 μM, ANP (10^-10 M), vs vehicle. The method, then: Primary Human cardiomyocytes (HCMs: Catalog No. 6200, Lot No. 6288, PromoCell) were maintained and subcultured according to the manufacturer's protocols. Passage 5 was used in the study. Treatment buffer, Compound 3, Compound 1 and Compound 2 acetate salt, ANP, and vehicle were prepared as described above. Briefly, 5×10^5 of cells/well were grown in 6-well plates until 80 to 90% confluency and were then pretreated with vehicle or Compound 3, Compound 1 or Compound 2 at doses of 1 or 10 μM for 5 min at 37° C., then cells were treated with ANP (10^-10 M) for an additional 10 min at 37° C. Afterward, all cells were washed with PBS once and lysed with 0.1 M HCl at room temperature, and intracellular cGMP levels were measured in the lysate using a commercial cGMP ELISA kit (Enzo Life Sciences) with the acetylation method as instructed by the manufacturer.
Background: In an ELISA, binding on a coated surface is turned into a signal by an enzyme label.

Experiment [3] deals with T2, extracellular domain human GC-A recombinant protein (Homo sapiens, UniProt P16066).
T2 construct: extracellular domain human GC-A recombinant protein; purchased My BioSource, Inc. San Diego, CA
T2 sequence (P16066 33-473 limits assumed): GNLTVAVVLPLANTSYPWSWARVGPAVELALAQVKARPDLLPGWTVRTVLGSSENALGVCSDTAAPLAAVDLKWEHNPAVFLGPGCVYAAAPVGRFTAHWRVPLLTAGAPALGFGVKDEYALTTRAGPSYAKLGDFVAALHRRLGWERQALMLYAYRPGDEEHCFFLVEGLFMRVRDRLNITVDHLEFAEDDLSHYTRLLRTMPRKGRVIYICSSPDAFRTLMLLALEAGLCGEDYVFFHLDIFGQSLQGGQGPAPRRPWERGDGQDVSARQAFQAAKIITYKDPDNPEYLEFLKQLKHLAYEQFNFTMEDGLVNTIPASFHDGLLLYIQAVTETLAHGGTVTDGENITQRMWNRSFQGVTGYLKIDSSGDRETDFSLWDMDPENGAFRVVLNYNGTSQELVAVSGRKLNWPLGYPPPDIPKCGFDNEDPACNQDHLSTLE
Briefly: Surface plasmon resonance binding to GC-A receptor. The note with it: acetate salt; for Kd: SPR 25° C., 1:1 Langmuir model. The method, then:
Surface plasmon resonance (SPR) measurements were performed at 25° C. on a BI-4500 SPR instrument (Biosensing Instrument Inc. Tempe AZ). As per the instructions by the Biosensing instrument manual, 400 mM nickel sulfate in deionized water was linked to the Ni-NTA sensor chip (Biosensing Instrument Inc. Tempe AZ. Then 30 μg/ml of extracellular domain human GC-A recombinant protein (My BioSource, Inc. San Diego, CA), containing 12 histidine residues on the C-terminus, was then immobilized to the nickel sulfate on the Ni-NTA sensor chip. After, the chip was washed with buffer (150 mM NaCl, 50 μM EDTA pH 7.4, 0).1% DMSO), then 100 μL of sequentially diluted Compound 3 acetate salt (0.125, 0.25, 0.5, 1, 2 μM), Compound 1 acetate salt (6.25, 12.5, 25, 50, 100 nM) or Compound 2 acetate salt (0.125, 0.25, 0.5, 1, 2 μM) was injected at the rate of 60 ul/min and allowed to dissociate for 60 seconds. Data was collected as sensorgrams. Binding kinetics were derived from sensorgrams using BI-Data Analysis Program (Biosensing Instrument, Tempe AZ). Affinity analysis of GC-A with Compound 3, Compound 2 and/or Compound 1 interactions were performed using a 1:1 Langmuir binding model. Two series were performed for all studies.

For orientation: Emax means the greatest response seen or fitted, relative to the assay's reference. A word on the EC50: it is the concentration needed to bring the measured effect to its halfway point. As to `CN(C)CCN1CCCC(C(=O)Nc2nc3c(F)cc(F)cc3s2)C1` (racemic) [Compound 3 TFA salt, N-(4,6-difluorobenzo[d]thiazol-2-yl)-1-(2-(dimethylamino)ethyl) piperidine-3-carboxamide], the maximal response (Emax) in experiment [1] came out at 95.8%. Moreover, the EC50 in experiment [1] (HEK293 GC-A cells) is 570 nM.

The Kd is the concentration at which binding is half-saturated. For `CN(C)CCN1CCCC(C(=O)Nc2nc3c(F)cc(F)cc3s2)C1` (racemic) [Compound 3 acetate salt, N-(4,6-difluoro-1,3-benzothiazol-2-yl)-1-[2-(dimethylamino)ethyl]piperidine-3-carboxamide], in experiment [2], the “cGMP generation in HCMs in the presence of ANP” value is listed as “dose dependent increase”. For the same molecule, in experiment [1] (HEK293 GC-A cells), the “potency in potentiating ANP-mediated cGMP generation (comparison between forms/enantiomers)” value is “more potent”, the EC50 turned out to be 320 nM and the “EMax cGMP activities” value turned out to be 84.0%. Besides, in experiment [3], the Kd worked out at 176 nM.

`CN(C)CCN1CCC[C@H](C(=O)Nc2nc3c(F)cc(F)cc3s2)C1` [Compound 1 TFA salt, (S)-N-(4,6-difluorobenzo[d]thiazol-2-yl)-1-(2-(dimethylamino)ethyl) piperidine-3-carboxamide]: in experiment [1] (HEK293 GC-A cells), the EC50 was 160 nM and the “EMax cGMP activities” value was 75.3%.

In the case of `CN(C)CCN1CCC[C@H](C(=O)Nc2nc3c(F)cc(F)cc3s2)C1` [Compound 1 acetate salt, (S)-N-(4,6-difluoro-1,3-benzothiazol-2-yl)-1-[2-(dimethylamino)ethyl]piperidine-3-carboxamide], in experiment [1], the Emax was found to be 81.5%. Moreover, the concentration giving a half-maximal response (EC50) in experiment [1] (HEK293 GC-A cells) was 150 nM. Moreover, the “binding for the GC-A receptor compared with Compound 3 and Compound 2 acetate salts” value in experiment [3] (SPR) is recorded as “greater binding”. The dissociation constant Kd in experiment [3] turned out to be 12 nM.

For the molecule `CN(C)CCN1CCC[C@@H](C(=O)Nc2nc3c(F)cc(F)cc3s2)C1` [Compound 2 TFA salt, (R)-N-(4,6-difluorobenzo[d]thiazol-2-yl)-1-(2-(dimethylamino)ethyl) piperidine-3-carboxamide], the Emax in experiment [1] turned out to be 82.7%. In experiment [1] (HEK293 GC-A cells), the EC50 came to 730 nM.

In the case of `CN(C)CCN1CCC[C@@H](C(=O)Nc2nc3c(F)cc(F)cc3s2)C1` [Compound 2 acetate salt, (R)-N-(4,6-difluoro-1,3-benzothiazol-2-yl)-1-[2-(dimethylamino)ethyl]piperidine-3-carboxamide], in experiment [1] (HEK293 GC-A cells), the 50% effective concentration (EC50) was 1320 nM and the “EMax cGMP activities” value is on record as 73.1%. In experiment [3], the Kd was found to be 120 nM.
